Results taken from patent publication US20170348306A1, “METHODS OF TREATING CANCER” (GLAXOSMITHKLINE LLC, priority 2011, published 2017).

Legend:
Assay in all cases: 6 day proliferation assay (assay 1)
Type in all cases: cell-based
[1] = system: 1A2; conditions: Homo sapiens, 144 h, 6 days, EZH2 WT, read-out: Compound A gIC50
Method: (§1) Cells were cultured in appropriate medium in flasks to 80-100% confluency. Cells were harvested, counted and plated at a pre-determined optimal seeding density ranging from 50 cells per well to 4000 cells per well depending on the growth characteristics of individual cell lines in 384-well tissue culture plates (Greiner #781090). Plates were then incubated overnight at 37° C., 5% CO2. Cells were treated with compound using a 20 point 1:2 fold dilution scheme with a final concentration of 0.15% DMSO. One column per plate contained cells treated with 0.15% DMSO only, and one column contained no cells to serve as background. Plates were incubated at 37° C., 5% CO2 for 6 days. A time zero (t0) reading was taken on the day of compound addition. To develop the plates, 25 μL of Cell Titer Glo (Promega #G7572) was added to each well and incubated at room temperature for 12 minutes. Luminescence was measured on the Tecan Safire2.
(§2) Data were analyzed using Assay Client software. Dose response curves were generated based on percent of growth compared to t0. Growth IC50 values were calculated using a 4 parameter logistic model.
(§3) In addition, further optimization of the EZH2 inhibition assay

[2] = system: BC-1; conditions: Homo sapiens, BC1, 144 h, 6 days, EZH2 WT, read-out: Compound A gIC50
Method: as §1, §2, §3

[3] = system: BC-2; conditions: Homo sapiens, 144 h, 6 days, EZH2 WT, read-out: Compound A gIC50
Method: as §1, §2, §3

[4] = system: BC-3; conditions: Homo sapiens, 144 h, 6 days, EZH2 WT, read-out: Compound A gIC50
Method: as §1, §2, §3

[5] = system: CA46; conditions: Homo sapiens, 144 h, 6 days, EZH2 WT, read-out: Compound A gIC50
Method: as §1, §2, §3

[6] = system: CROAP2; conditions: Homo sapiens, CRO-AP2, 144 h, 6 days, EZH2 WT, read-out: Compound A gIC50
Method: as §1, §2, §3

[7] = system: CROAP5; conditions: Homo sapiens, CRO-AP5, 144 h, 6 days, EZH2 WT, read-out: Compound A gIC50
Method: as §1, §2, §3

[8] = system: DB; conditions: Homo sapiens, 144 h, 6 days, EZH2 Y641N, read-out: Compound A gIC50
Method: as §1, §2, §3

[9] = system: DG75; conditions: Homo sapiens, DG-75, 144 h, 6 days, EZH2 WT, read-out: Compound A gIC50
Method: as §1, §2, §3

[10] = system: DOHH2; conditions: Homo sapiens, DOHH-2, 144 h, 6 days, EZH2 WT, read-out: Compound A gIC50
Method: as §1, §2, §3

[11] = system: Daudi; conditions: Homo sapiens, 144 h, 6 days, EZH2 WT, read-out: Compound A gIC50
Method: as §1, §2, §3

[12] = system: Farage; conditions: Homo sapiens, 144 h, 6 days, EZH2 WT, read-out: Compound A gIC50
Method: as §1, §2, §3

[13] = system: HDMyZ; conditions: Homo sapiens, 144 h, 6 days, EZH2 WT, read-out: Compound A gIC50
Method: as §1, §2, §3

[14] = system: HT; conditions: Homo sapiens, 144 h, 6 days, EZH2 WT, read-out: Compound A gIC50
Method: as §1, §2, §3

[15] = system: Hs445; conditions: Homo sapiens, Hs 445, 144 h, 6 days, EZH2 WT, read-out: Compound A gIC50
Method: as §1, §2, §3

[16] = system: HsSullan; conditions: Homo sapiens, 144 h, 6 days, EZH2 WT, read-out: Compound A gIC50
Method: as §1, §2, §3

[17] = system: JM1; conditions: Homo sapiens, 144 h, 6 days, EZH2 WT, read-out: Compound A gIC50
Method: as §1, §2, §3

[18] = system: Jiyoye; conditions: Homo sapiens, 144 h, 6 days, EZH2 WT, read-out: Compound A gIC50
Method: as §1, §2, §3

[19] = system: Karpass422; conditions: Homo sapiens, 144 h, 6 days, EZH2 Y641N, read-out: Compound A gIC50
Method: as §1, §2, §3

[20] = system: L428; conditions: Homo sapiens, L-428, 144 h, 6 days, EZH2 Y641S, read-out: Compound A gIC50
Method: as §1, §2, §3

[21] = system: MJ; conditions: Homo sapiens, 144 h, 6 days, EZH2 WT, read-out: Compound A gIC50
Method: as §1, §2, §3

[22] = system: NAMALWA; conditions: Homo sapiens, 144 h, 6 days, EZH2 WT, read-out: Compound A gIC50
Method: as §1, §2, §3

[23] = system: OCI-LY-19; conditions: Homo sapiens, OCI-LY19, 144 h, 6 days, EZH2 Y641N, read-out: Compound A gIC50
Method: as §1, §2, §3

[24] = system: P3HR1; conditions: Homo sapiens, P3HR-1, 144 h, 6 days, EZH2 WT, read-out: Compound A gIC50
Method: as §1, §2, §3

[25] = system: Pfeiffer; conditions: Homo sapiens, 144 h, 6 days, EZH2 A677G, read-out: Compound A gIC50
Method: as §1, §2, §3

[26] = system: RCK8; conditions: Homo sapiens, 144 h, 6 days, EZH2 WT, read-out: Compound A gIC50
Method: as §1, §2, §3

[27] = system: REC1; conditions: Homo sapiens, 144 h, 6 days, EZH2 WT, read-out: Compound A gIC50
Method: as §1, §2, §3

[28] = system: RL; conditions: Homo sapiens, 144 h, 6 days, EZH2 Y641N, read-out: Compound A gIC50
Method: as §1, §2, §3

[29] = system: RPMI-6666; conditions: Homo sapiens, 144 h, 6 days, EZH2 WT, read-out: Compound A gIC50
Method: as §1, §2, §3

[30] = system: Raji; conditions: Homo sapiens, 144 h, 6 days, EZH2 WT, read-out: Compound A gIC50
Method: as §1, §2, §3

[31] = system: Ramos; conditions: Homo sapiens, 144 h, 6 days, EZH2 WT, read-out: Compound A gIC50
Method: as §1, §2, §3

[32] = system: SKM1; conditions: Homo sapiens, SKM-1, 144 h, 6 days, EZH2 Y641C, read-out: Compound A gIC50
Method: as §1, §2, §3

[33] = system: SU-DHL-10; conditions: Homo sapiens, SU-DHL10, 144 h, 6 days, EZH2 Y641F, read-out: Compound A gIC50
Method: as §1, §2, §3

[34] = system: SU-DHL-4; conditions: Homo sapiens, 144 h, 6 days, EZH2 Y641S, read-out: Compound A gIC50
Method: as §1, §2, §3

[35] = system: SU-DHL-5; conditions: Homo sapiens, 144 h, 6 days, EZH2 WT, read-out: Compound A gIC50
Method: as §1, §2, §3

[36] = system: Toledo; conditions: Homo sapiens, 144 h, 6 days, EZH2 WT, read-out: Compound A gIC50
Method: as §1, §2, §3

[37] = system: U937; conditions: Homo sapiens, U-937, 144 h, 6 days, EZH2 WT, read-out: Compound A gIC50
Method: as §1, §2, §3

[38] = system: WSU-DLCL-2; conditions: Homo sapiens, WSUDLCL2, 144 h, 6 days, EZH2 Y641F, read-out: Compound A gIC50
Method: as §1, §2, §3

For `CCCc1cc(C)[nH]c(=O)c1CNC(=O)c1cc(-c2ccc(N3CCN(C)CC3)nc2)cc2c1cnn2C(C)C` [Compound A, 1-(1-methylethyl)-N-[(6-methyl-2-oxo-4-propyl-1,2-dihydro-3-pyridinyl)methyl]-6-[6-(4-methyl-1-piperazinyl)-3-pyridinyl]-1H-indazole-4-carboxamide], the IC50 [1] was 9.26 µM, the IC50 [2] was 8.82 µM and the IC50 [3] was 2.18 µM. It also gave an IC50 [4] of 5.28 µM, an IC50 [5] of 8.63 µM and an IC50 [6] of 11.3 µM. It also gave an IC50 [7] of 6.16 µM, an IC50 [8] of 9.5 µM and an IC50 [9] of 6.23 µM. It also gave an IC50 [10] of 6.43 µM, an IC50 [11] of 13.4 µM and an IC50 [12] of 4.79 µM. It also gave an IC50 [13] of 7.21 µM, an IC50 [14] of 3.71 µM and an IC50 [15] of 1.57 µM. The IC50 [16] was 3.94 µM, the IC50 [17] was 6.66 µM and the IC50 [18] was 2.47 µM. The IC50 [19] was 1.32 µM, the IC50 [20] was 3.1 µM and the IC50 [21] was 3.28 µM. For the same compound, the IC50 [22] was 6.22 µM, the IC50 [23] was 4.48 µM and the IC50 [24] was 7.8 µM. The IC50 [25] was 0.189 µM, the IC50 [26] was 5.56 µM and the IC50 [27] was 2.91 µM. The IC50 [28] was 4.66 µM, the IC50 [29] was 3.1 µM and the IC50 [30] was 6.14 µM. It also gave an IC50 [31] of 3.51 µM, an IC50 [32] of 6.16 µM and an IC50 [33] of 0.324 µM. For the same compound, the IC50 [34] was 14 µM, the IC50 [35] was 3.44 µM and the IC50 [36] was 21.8 µM. The IC50 [37] was 7.9 µM and the IC50 [38] was 3.1 µM.
